# Test results from PMC6269562, “Design, Synthesis and Biological Evaluation of New Imidazo[2,1-b]Thiazole Derivatives as Selective COX-2 Inhibitors” (Iranian Journal of Pharmaceutical Research : IJPR, 2018).
# Like-named read-outs stand apart in the source and are kept apart here.
# Key:
# COX-2 [1] = conditions: cited from earlier work
# COX-1 = conditions: read-out: IC50 Whole cell COX-1; cited from earlier work
# COX-2 [2] = conditions: read-out: COX-2 IC50; cited from earlier work
# ovine COX-2 = molecular target: T1, ovine COX-2 (Ovis aries, UniProt P79208); assay: biochemical; conditions: for IC50: ovine COX-1/COX-2 assay kit, means of two determinations; for Selectivity index (SI): COX-1 IC50/COX-2 IC50
# T1 construct: purchased Cayman chemical, MI, USA
# T1 sequence (P79208 17-603): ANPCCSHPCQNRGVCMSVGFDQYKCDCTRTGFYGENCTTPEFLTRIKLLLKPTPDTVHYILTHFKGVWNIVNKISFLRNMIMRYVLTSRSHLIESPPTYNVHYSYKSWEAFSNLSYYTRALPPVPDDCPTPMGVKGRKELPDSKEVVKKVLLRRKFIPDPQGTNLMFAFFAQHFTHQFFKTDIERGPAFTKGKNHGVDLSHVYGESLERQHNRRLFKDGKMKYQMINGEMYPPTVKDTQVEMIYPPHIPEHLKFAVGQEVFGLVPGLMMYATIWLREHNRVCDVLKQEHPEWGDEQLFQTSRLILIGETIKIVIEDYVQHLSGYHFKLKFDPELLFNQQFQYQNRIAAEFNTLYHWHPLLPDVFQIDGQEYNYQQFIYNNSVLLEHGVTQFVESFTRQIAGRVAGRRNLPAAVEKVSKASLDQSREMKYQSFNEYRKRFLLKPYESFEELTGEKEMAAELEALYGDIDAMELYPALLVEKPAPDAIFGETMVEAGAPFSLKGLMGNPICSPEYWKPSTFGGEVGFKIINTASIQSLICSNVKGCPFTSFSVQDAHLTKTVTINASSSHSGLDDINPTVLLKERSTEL
# Excerpt: (§1) In-vitro cyclooxygenase (COX) inhibition assay
# (§2) Enzyme chemiluminescent kit (Cayman chemical, MI, USA) was used to evaluate inhibition activities of synthesized compounds based on our previous reported procedure ([34]). The Cayman chemical chemiluminescent COX (ovine) inhibitor screening assay employs the heme-catalyzed hydroperoxidase activity of ovine cyclooxygenases to produce luminescence in the presence of a cyclic naphthalene hydrazide and the substrate arachidonic acid.
# ovine COX-1 = molecular target: T2, ovine COX-1 (Ovis aries, UniProt P05979); assay: biochemical; conditions: ovine COX-1/COX-2 assay kit, means of two determinations
# T2 construct: purchased Cayman chemical, MI, USA
# T2 sequence (P05979 25-600): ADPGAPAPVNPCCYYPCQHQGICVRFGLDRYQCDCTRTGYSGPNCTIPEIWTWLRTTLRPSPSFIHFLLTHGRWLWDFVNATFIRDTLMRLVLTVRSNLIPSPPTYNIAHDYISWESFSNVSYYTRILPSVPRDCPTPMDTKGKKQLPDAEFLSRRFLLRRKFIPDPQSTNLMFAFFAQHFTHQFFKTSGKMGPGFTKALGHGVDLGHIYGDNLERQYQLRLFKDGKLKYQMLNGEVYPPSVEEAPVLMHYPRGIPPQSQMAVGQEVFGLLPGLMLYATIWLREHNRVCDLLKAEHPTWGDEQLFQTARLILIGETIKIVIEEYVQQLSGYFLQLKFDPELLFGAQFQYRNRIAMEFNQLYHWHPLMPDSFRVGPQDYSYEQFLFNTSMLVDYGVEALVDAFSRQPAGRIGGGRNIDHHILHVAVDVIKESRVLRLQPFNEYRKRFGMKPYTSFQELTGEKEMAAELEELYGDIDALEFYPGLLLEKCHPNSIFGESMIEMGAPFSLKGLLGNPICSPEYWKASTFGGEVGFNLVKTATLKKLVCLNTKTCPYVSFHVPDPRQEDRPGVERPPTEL
# Excerpt: as §1, §2
Compound,melting point [°C],IC50 (ovine COX-2) [nM],IC50 (ovine COX-1) [nM],Selectivity index (SI) (ovine COX-2),further results
"CS(=O)(=O)c1ccc(-c2nc3ccccn3c2CN2CCOCC2)cc1 [2-(4-(methylsulfonyl)phenyl)-3-(morpholinomethyl)H-imidazo[1,2-a]pyridine]",–,–,–,–,SI (COX-2 [1]; COX-2 selectivity index): 217.1; IC50 (COX-2 [1]; read-out: IC50 (COX-2 inhibition)): 70 nM
"Cc1cnc2c(-c3ccc(F)cc3)c(-c3ccc(S(C)(=O)=O)cc3)nn2c1C [3-(4-fluorophenyl)-6,7-dimethyl-2-(4-(methylsulfonyl)phenyl)pyrazolo[1,5-a]pyrimidine]",–,–,–,–,IC50 (COX-1): > 10000 nM
COc1ccc2[nH]c(-c3ccc(S(C)(=O)=O)cc3)cc2c1 [5-methoxy-2-(4-(methylsulfonyl)phenyl)-1H-indole],–,–,–,–,IC50 (COX-2 [2]): 80 nM
"CCN(CC)Cc1c(-c2ccc(S(C)(=O)=O)cc2)nc2sccn12 [Compound 6b, N-Ethyl-N-((6-(4-(methylsulfonyl)phenyl)imidazo[2,1-b]thiazol-5-yl)methyl)ethanamine]",132 to 135,120,48500,404.1,–
"CS(=O)(=O)c1ccc(-c2nc3sccn3c2CN2CCCC2)cc1 [Compound 6d, 6-(4-(Methylsulfonyl)phenyl)-5-(pyrrolidin-1-ylmethyl)imidazo[2,1-b]thiazole]",144 to 146,90,12100,134.4,–

# Now from value to molecule, other results behind:
melting point [°C],IC50 (ovine COX-2) [nM],IC50 (ovine COX-1) [nM],Selectivity index (SI) (ovine COX-2),Compound,further results
123 to 124,80,> 100000,–,"CN(C)Cc1c(-c2ccc(S(C)(=O)=O)cc2)nc2sccn12 [Compound 6a, N,N-Dimethyl-1-(6-(4-(methylsulfonyl)phenyl)imidazo[2,1-b]thiazol-5-yl)methanamine]",–
165 to 167,–,–,–,"CCCN(CCC)Cc1c(-c2ccc(S(C)(=O)=O)cc2)nc2sccn12 [Compound 6c, N-((6-(4-(Methylsulfonyl)phenyl)imidazo[2,1-b]thiazol-5-yl)methyl)-N-propylpropan-1-amine]",–
142.6 to 144,160,50100,313.1,"CS(=O)(=O)c1ccc(-c2nc3sccn3c2CN2CCCCC2)cc1 [Compound 6e, 6-(4-(Methylsulfonyl)phenyl)-5-(piperidin-1-ylmethyl)imidazo[2,1-b]thiazole]",–
203 to 206,100,55100,551.0,"CS(=O)(=O)c1ccc(-c2nc3sccn3c2CN2CCOCC2)cc1 [Compound 6f, 4-((6-(4-(Methylsulfonyl)phenyl)imidazo[2,1-b]thiazol-5-yl)methyl)morpholine]",–
168.8 to 170,110,> 100000,–,"CS(=O)(=O)c1ccc(-c2nc3sccn3c2CN(CCO)CCO)cc1 [Compound 6g, 2,2′-(((6-(4-(Methylsulfonyl)phenyl)imidazo[2,1-b]thiazol-5-yl)methyl)azanediyl)bis(ethan-1-ol)]",–
